This passage reports Activity results from ChEMBL document CHEMBL5532691, “Anti-cancer activity and mechanism of flurbiprofen organoselenium compound RY-1-92 in non-small cell lung cancer” (RSC Med Chem, 2024).

The data set has as its system BEAS-2B. The data set is described as follows: Cytotoxicity against human BEAS-2B cells assessed as reduction in cell viability at 1.2 mM measured after 48 hrs by MTT assay. The data set is classed as toxicity, cell-based. Particulars: 1200 µM.

Each structure is given as a SMILES string.

Turning to `CC1=C(CC(=O)O)c2cc(F)ccc2/C1=C\c1ccc([S+](C)[O-])cc1` (stereo unspecified) [SULINDAC], the Activity result was “Toxic”.
